According to PubChem BioAssay (NCI):
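Following 48 hours of exposure in 96-well plates, responses at five concentrations were used to interpolate endpoints linearly. TGI is the concentration that stops growth completely.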

Legend:
Assay in all cases: NCI anticancer screen, dose series, 48 h
SK-MEL-2 melanoma = system: SK-MEL-2 melanoma
CAKI-1 renal = system: CAKI-1 renal
SR leukemia = system: SR leukemia
EKVX NSCLC = system: EKVX NSCLC
UACC-257 melanoma = system: UACC-257 melanoma
MALME-3M melanoma = system: MALME-3M melanoma
U251 CNS = system: U251 CNS
KM20L2 colon = system: KM20L2 colon
HOP-62 NSCLC = system: HOP-62 NSCLC
MOLT-4 leukemia = system: MOLT-4 leukemia
HCT-116 colon = system: HCT-116 colon
SN12C renal = system: SN12C renal
NCI-H460 lung = system: NCI-H460 lung
DMS 114 small cell lung = system: DMS 114 small cell lung
HCC-2998 colon = system: HCC-2998 colon
HOP-92 NSCLC = system: HOP-92 NSCLC
NCI-H226 lung = system: NCI-H226 lung
SK-OV-3 ovarian = system: SK-OV-3 ovarian
M19-MEL melanoma = system: M19-MEL melanoma
KM12 colon = system: KM12 colon
HCT-15 colon = system: HCT-15 colon
OVCAR-4 ovarian = system: OVCAR-4 ovarian
SK-MEL-28 melanoma = system: SK-MEL-28 melanoma
OVCAR-8 ovarian = system: OVCAR-8 ovarian
OVCAR-3 ovarian = system: OVCAR-3 ovarian
ACHN renal = system: ACHN renal
CCRF-CEM leukemia = system: CCRF-CEM leukemia
SW-620 colon = system: SW-620 colon
NCI-H23 lung = system: NCI-H23 lung
SF-295 CNS = system: SF-295 CNS
HL-60(TB) leukemia = system: HL-60(TB) leukemia
UACC-62 melanoma = system: UACC-62 melanoma
COLO 205 colon = system: COLO 205 colon
LXFL 529 NSCLC = system: LXFL 529 NSCLC
OVCAR-5 ovarian = system: OVCAR-5 ovarian
M14 melanoma = system: M14 melanoma
NCI-H522 lung = system: NCI-H522 lung
UO-31 renal = system: UO-31 renal
A498 renal = system: A498 renal
SNB-75 CNS = system: SNB-75 CNS
RPMI-8226 leukemia = system: RPMI-8226 leukemia
SNB-19 CNS = system: SNB-19 CNS
SF-268 CNS = system: SF-268 CNS
SK-MEL-5 melanoma = system: SK-MEL-5 melanoma
TK-10 renal = system: TK-10 renal
K-562 leukemia = system: K-562 leukemia
HT29 colon = system: HT29 colon
DLD-1 colon = system: DLD-1 colon
SF-539 CNS = system: SF-539 CNS
IGROV1 ovarian = system: IGROV1 ovarian
XF 498 CNS = system: XF 498 CNS
A549 NSCLC = system: A549 NSCLC
LOX IMVI melanoma = system: LOX IMVI melanoma
DMS 273 small cell lung = system: DMS 273 small cell lung
786-0 renal = system: 786-0 renal

Measured: TGI

O=C(/C=C/CC(O)(c1ccccc1)c1ccccc1)Nc1ccccc1Cl
not listed: SF-539 CNS | IGROV1 ovarian | XF 498 CNS | A549 NSCLC | LOX IMVI melanoma | DMS 273 small cell lung | 786-0 renal
> 100 µM: all other assays above

Cc1cc(N(CCC#N)CCC#N)ccc1/C=C/C(=O)Nc1ccccc1Cl
not listed: SR leukemia
> 100 µM: all other assays above
